Experimental findings from patent US9884863B2, “STAT3 inhibitor” (Board of Regents, The University of Texas System, priority 2013, dated 2018) are described below.

Usually IC50 stands for the concentration that gives 50% inhibition.

One assay has as its system MDA-MB-231. Kind of assay: MTS cell proliferation assay, MDA-MB-231. It is filed as cell-based, human. The note with it: Homo sapiens, read-out: IC50 MDA-MB-231 (Table 1). On the procedure:
(§1) Cancer cells (breast cancer cell lines MCF-7, MDA-MB-361, SKBR3 and MDA-MB-231, pancreatic cancer cell lines AsPC-1. BxPC3 and Panc-1) were seeded in 96-well plates at a density of 1000-2000 cells/well and treated with DMSO, 0.01, 0.1, 1, 5, 10, and 100 mM of STAT3 individual inhibitors for 72 hrs. Proliferation was measured by treating cells with the 3-(4,5-dimethylthiazol-2-yl)-5-(3-carboxymethoxyphenyl)-2-(4-sulfophenyl)-2H-tetrazolium) (MTS) in a CellTiter 96t AQueous Non-Radioactive Cell Proliferation Assay kit from Promega, Madison, Wis., USA). Absorbance of all wells was determined by measuring OD at 550 nm after 1 hr incubation at 37° C. on a 96-well iMark™ Microplate Absorbance Reader (BioRad, Hercules, Calif.).
In Vitro Determination of Effects of Synthesized Compounds on Cancer Cell Proliferation. Cancer cells (breast cancer cell lines MCF-7 and MDA-MB-231, pancreatic cancer cell lines AsPC-1 and Panc-1) were seeded in 96-well plates at a density of 2×10^3 cells/well and treated with DMSO, 0.01, 0.1, 1, 5, 10, and 100 μM of individual STAT3 inhibitors for 72 h. Proliferation was measured by treating cells with the 3-(4,5-dimethylthiazol-2-yl)-5-(3-carboxymethoxyphenyl)-2-(4-sulfophenyl)-2H-tetrazolium) (MTS) in a CellTiter 96t Aqueous Non-Radioactive Cell Proliferation Assay kit (Promega, Madison, Wis., USA). Absorbance of all wells was determined by measuring OD at 550 nm after 1 h incubation at 37° C. on a 96-well iMark™ Microplate Absorbance Reader (BioRad, Hercules, Calif.). Each individual compound was tested in quadruplicate wells for each concentration. […]
In general terms: Tetrazolium assays rely on reduction of a dye to a coloured formazan, in cell work by metabolically active cells.

The test system of a further assay is MCF-7. The experiment in a line: MTS cell proliferation assay, MCF-7. It is filed as cell-based, human. On the procedure:
as §1, with “BxPC3 and Panc-1) were seeded in 96-well plates at a density of 1000-2000 cells/well and treated with DMSO, 0.01, 0.1, 1, 5, 10, and 100 mM of STAT3 individual inhibitors for 72 hrs.” left out, “Calif.). Each individual compound was tested in quadruplicate wells for each concentration, and the results were reported as mean absorption±s.e.” for “Calif.).”
In Vitro Determination of Effects of Synthesized Compounds on Cancer Cell Proliferation. Cancer cells (breast cancer cell lines MCF-7 and MDA-MB-231, pancreatic cancer cell lines AsPC-1 and Panc-1) were […], 0.01, 0.1, 1, 5, 10, […] Proliferation was measured by treating cells with the 3-(4,5-dimethylthiazol-2-yl)-5-(3-carboxymethoxyphenyl)-2-(4-sulfophenyl)-2H-tetrazolium) (MTS) in a CellTiter 96t Aqueous Non-Radioactive Cell Proliferation Assay kit (Promega, Madison, Wis., USA). Absorbance of all wells was determined by measuring OD at 550 nm after 1 h incubation at 37° C. on a 96-well iMark™ Microplate Absorbance Reader (BioRad, Hercules, Calif.). Each individual compound was tested in quadruplicate wells for each concentration.

The mark [1] stands for this setting: Homo sapiens, MCF7, 72 h, read-out: IC50 MCF-7 (Table 1).
Setting [2] is: MDA-MB-231, ER-negative breast cancer, 72 hrs, >10 = no effect.
Setting [3] is: Homo sapiens, MCF7, 72 h; read-out: IC50 MCF-7 (Table 1).
Setting [4] is: MCF-7, 48 hr, μM concentrations.

Read-outs that look alike come from different tables or passages of the source.

For the compound `O=C(Nc1ccc2c(c1)S(=O)(=O)C=C2)c1cc(Cl)ccc1OCCBr` [HJC-3-77, 2-(2-Bromo-ethoxy)-5-chloro-N-(1,1-dioxo-1H-1λ^6-benzo[b]thiophen-6-yl)benzamide], the IC50 in the assay with MDA-MB-231 (MDA-MB-231, 72 h) was above 10 µM; with MCF-7 (setting [1]), above 10 µM.
Turning to `COc1ccc(S(=O)(=O)Nc2ccc3c(c2)S(=O)(=O)C=C3)cc1` [HJC-3-68, N-(1,1-Dioxo-1H-1λ^6-benzo[b]thiophen-6-yl)-4-methoxybenzenesulfonamide], the IC50 was 2.71 µM in the assay on MDA-MB-231 (setting [2]) and 3.45 µM in the assay on MCF-7 (setting [3]).
As for `CN(C)CCOc1ccc(Cl)cc1C(=O)Nc1ccc([N+](=O)[O-])cc1Cl` [HJC-3-57, 5-Chloro-N-(2-chloro-4-nitro-phenyl)-2-(2-dimethylamino-ethoxy)benzamide], the IC50 with MDA-MB-231 (MDA-MB-231, 72 h) was above 10 µM; with MCF-7 (setting [1]) it was above 10 µM.
`O=C(Nc1ccc([N+](=O)[O-])cc1Cl)c1cc(Cl)ccc1OCC(O)CO` (stereo not drawn) [HJC-3-60, 5-Chloro-N-(2-chloro-4-nitrophenyl)-2-(2,3-dihydroxypropoxy)benzamide]: the IC50 in the assay on MDA-MB-231 (setting [2]) and in the assay on MCF-7 (setting [3]) was above 10 µM in each case.
For the compound `CN1CCN(CCOc2ccc(Cl)cc2C(=O)Nc2ccc([N+](=O)[O-])cc2Cl)CC1` [HJC-3-65, 5-Chloro-N-(2-chloro-4-nitrophenyl)-2-[2-(4-methylpiperazin-1-yl)-ethoxy]benzamide], the IC50 with MDA-MB-231 (setting [2]) and in the assay with MCF-7 (setting [3]) was above 10 µM throughout.
Consider `CN(C)CCOc1ccc(Cl)cc1C(=O)Nc1ccc2c(c1)S(=O)(=O)C=C2` [HJC-3-69, 5-Chloro-2-(2-dimethylaminoethoxy)-N-(1,1-dioxo-1H-1λ^6-benzo[b]thiophen-6-yl) benzamide], for which the IC50 in the assay with MDA-MB-231 (MDA-MB-231, 72 h) worked out at 2.69 µM; in the assay on MCF-7 (setting [1]) it was 3.5 µM. In the assay with MCF-7 (setting [4]), the “inhibition on breast cancer cell proliferation (FIG. 1)” value (from here on “inhibition”) is “significant inhibition”.
As for `COC1CS(=O)(=O)c2cc(NC(C)=O)ccc21` (stereo not drawn) [HJC-1-63, N-(3-Methoxy-1,1-dioxo-2,3-dihydro-1H-1λ^6-benzo[b]thiophen-6-yl)acetamide], the concentration for half-maximal inhibition (IC50) in the assay with MDA-MB-231 (setting [2]) and with MCF-7 (setting [3]) was above 10 µM in each case.
With `O=C(Nc1ccc2c(c1)S(=O)(=O)C=C2)c1cccnc1` [HJC-3-76, N-(1,1-Dioxo-1H-1λ^6-benzo[b]thiophen-6-yl)-nicotinamide], the 50% inhibitory concentration (IC50) in the assay on MDA-MB-231 (MDA-MB-231, 72 h) is above 10 µM; with MCF-7 (setting [1]) it was 15.3 µM.
For the compound `CC(=O)Nc1ccc(NC(=O)c2cc(Cl)ccc2OC2CCNCC2)c(Cl)c1` [HJC-4-32, N-(4-Acetylamino-2-chloro-phenyl)-5-chloro-2-(piperidin-4-yloxy)benzamide], the IC50 in the assay with MDA-MB-231 (setting [2]) and in the assay on MCF-7 (setting [3]) was above 10 µM each time.
As for `COC1CS(=O)(=O)c2cc(NC(=O)c3cc(-c4ccccc4)nc4ccccc34)ccc21` (stereo not drawn) [HJC-1-57, 2-Phenyl-quinoline-4-carboxylic acid (3-methoxy-1,1-dioxo-2,3-dihydro-1H-1λ^6-benzo[b]thiophen-6-yl)amide], the values for the IC50 in the assay with MDA-MB-231 (setting [2]) and in the assay with MCF-7 (setting [3]) were 13.8 µM and above 10 µM, respectively.
Consider `CS(=O)(=O)N(c1ccc(NC(=O)c2cc(Cl)ccc2OC2CCNCC2)c(Cl)c1)S(C)(=O)=O` [HJC-4-35-1], for which the IC50 in the assay with MDA-MB-231 (setting [2]) and with MCF-7 (setting [3]) was above 10 µM each time.
Regarding `O=C(Nc1ccc2c(c1)S(=O)(=O)C=C2)c1cc(Cl)ccc1OCCF` [HJC-3-99, 5-Chloro-N-(1,1-dioxo-1H-1λ^6-benzo[b]thiophen-6-yl)-2-(2-fluoroethoxy)benzamide], the IC50 was found to be 4.42 µM in the assay on MDA-MB-231 (MDA-MB-231, 72 h) and 4 µM in the assay on MCF-7 (setting [1]).
For `NCCOCCOc1ccc(Cl)cc1C(=O)Nc1ccc([N+](=O)[O-])cc1Cl` [HJC-2-58, 2-[2-(2-Amino-ethoxy)-ethoxy]-5-chloro-N-(2-chloro-4-nitro-phenyl)benzamide], the values for the half-maximal inhibitory concentration (IC50) with MDA-MB-231 (setting [2]) and in the assay on MCF-7 (setting [3]) were 5.3 µM and 9.37 µM, respectively.
On to `O=C(Nc1ccc([N+](=O)[O-])cc1Cl)c1cc(Cl)ccc1OCCN1CCNCC1` [HJC-2-52, 5-Chloro-N-(2-chloro-4-nitro-phenyl)-2-(2-piperazin-1-yl-ethoxy)benzamide], for which the IC50 in the assay on MDA-MB-231 (setting [2]) was found to be 8.66 µM; in the assay with MCF-7 (setting [3]) it was 12.4 µM.
Taken in the same sequence, the figures for `COc1ccc(C(=O)Nc2ccc3c(c2)S(=O)(=O)C=C3)cc1` [HJC-2-15, N-(1,1-Dioxo-1H-1λ^6-benzo[b]thiophen-6-yl)-4-methoxybenzamide] were 4.97 µM and 5.85 µM.
In the same order, the values of `CS(=O)(=O)Nc1ccc(NC(=O)c2cc(Cl)ccc2OC2CCNCC2)c(Cl)c1` [HJC-4-35-2] are above 10 µM and above 10 µM.
With `O=C(Nc1ccc2c(c1)S(=O)(=O)C=C2)c1ccccn1` [HJC-3-20, Pyridine-2-carboxylic acid (1,1-dioxo-1H-1λ^6-benzo[b]thiophen-6-yl)amide], the IC50 in the assay on MDA-MB-231 (setting [2]) is above 10 µM; in the assay on MCF-7 (setting [3]), 6.7 µM.
For `CN1CCC(Oc2ccc(Cl)cc2C(=O)Nc2ccc([N+](=O)[O-])cc2Cl)CC1` [HJC-3-81, 5-Chloro-N-(2-chloro-4-nitrophenyl)-2-(1-methylpiperidin-4-yloxy)benzamide], the IC50 is 2.69 µM in the assay with MDA-MB-231 (MDA-MB-231, 72 h) and 4.11 µM with MCF-7 (setting [1]). For the same compound, the “inhibition” value with MCF-7 (setting [4]) is “significant inhibition”.
In the case of `O=C(Nc1ccc([N+](=O)[O-])cc1Cl)c1cc(Cl)ccc1OCCN1CCCCC1` [HJC-3-84, 5-Chloro-N-(2-chloro-4-nitrophenyl)-2-(2-piperidin-1-yl-ethoxy)benzamide], the IC50 in the assay with MDA-MB-231 (setting [2]) and in the assay with MCF-7 (setting [3]) was above 10 µM each time.
As for `NCCCCOc1ccc(Cl)cc1C(=O)Nc1ccc([N+](=O)[O-])cc1Cl` [HJC-4-31, 2-(4-Aminobutoxy)-5-chloro-N-(2-chloro-4-nitrophenyl)benzamide], the concentration for half-maximal inhibition (IC50) in the assay on MDA-MB-231 (setting [2]) came to 2.37 µM; in the assay with MCF-7 (setting [3]), 3.7 µM. For the same compound, the “inhibition” value with MCF-7 (setting [4]) was “significant inhibition”.
`CS(=O)(=O)N1CCC(Oc2ccc(Cl)cc2C(=O)Nc2ccc([N+](=O)[O-])cc2Cl)CC1` [HJC-4-24, 5-Chloro-N-(2-chloro-4-nitrophenyl)-2-(1-methanesulfonylpiperidin-4-yloxy)benzamide]: the IC50 in the assay with MDA-MB-231 (setting [2]) and with MCF-7 (setting [3]) was above 10 µM in each case.
Consider `CS(=O)(=O)N1CCN(CCOc2ccc(Cl)cc2C(=O)Nc2ccc([N+](=O)[O-])cc2Cl)CC1` [HJC-2-55, 5-Chloro-N-(2-chloro-4-nitrophenyl)-2-[2-(4-methanesulfonylpiperazin-1-yl)-ethoxy]benzamide], for which the IC50 in the assay with MDA-MB-231 (setting [2]) and with MCF-7 (setting [3]) was above 10 µM in each case.
For the compound `CC(=O)Nc1ccc2c(c1)S(=O)(=O)C=C2` [HJC-1-62, N-(1,1-Dioxo-1H-1λ^6-benzo[b]thiophen-6-yl)acetamide], the concentration for half-maximal inhibition (IC50) in the assay with MDA-MB-231 (setting [2]) and with MCF-7 (setting [3]) was above 10 µM each time.
`O=C(Nc1ccc([N+](=O)[O-])cc1Cl)c1cc(Cl)ccc1OCCBr` [HJC-3-64, 2-(2-Bromoethoxy)-5-chloro-N-(2-chloro-4-nitrophenyl)benzamide]: the IC50 in the assay with MDA-MB-231 (MDA-MB-231, 72 h) is above 10 µM; with MCF-7 (setting [1]), above 10 µM.
With `CC(=O)NCCOc1ccc(Cl)cc1C(=O)Nc1ccc([N+](=O)[O-])cc1Cl` [HJC-4-25, 2-(2-Acetylaminoethoxy)-5-chloro-N-(2-chloro-4-nitrophenyl)benzamide], the IC50 in the assay on MDA-MB-231 (setting [2]) and in the assay with MCF-7 (setting [3]) was above 10 µM each time.
Take `CN1CCC(Oc2ccc(Cl)cc2C(=O)Nc2ccc3c(c2)S(=O)(=O)C=C3)CC1` [HJC-3-82, 5-Chloro-N-(1,1-dioxo-1H-1λ^6-benzo[b]thiophen-6-yl)-2-(1-methyl-piperidin-4-yloxy) benzamide]: the IC50 in the assay with MDA-MB-231 (MDA-MB-231, 72 h) is 2.68 µM; with MCF-7 (setting [1]) it was 3.53 µM.
Consider `CC(=O)N1CCC(Oc2ccc(Cl)cc2C(=O)Nc2ccc([N+](=O)[O-])cc2Cl)CC1` [HJC-4-22, 2-(1-Acetylpiperidin-4-yloxy)-5-chloro-N-(2-chloro-4-nitrophenyl)benzamide], for which the IC50 is 5.87 µM with MDA-MB-231 (setting [2]) and above 10 µM in the assay with MCF-7 (setting [3]).
